Data as given in patent publication US11104618B2, “Fertilizer composition and methods of making and using same” (SABIC GLOBAL TECHNOLOGIES B.V., priority 2015, dated 2021).

Key:
Upland Crowley Soil = assay: Nitrogen loss after 17 days of exposure to soil (IFDC)
Description: The nitrogen volatilization was measured in different soils for several samples and compared to products on the market, such as Agrotain®, ESN®, and SuperU®. The samples were tested in Greenville soil, Crowley soil, and Brownfield Soil. Crowley soil consists of very deep, somewhat poorly drained, very slowly permeable soils that formed in clayey fluviomarine deposits of the Pleistocene age. The soil exist in nearly level to very gently sloping soils and occur on flat coastal plains terraces. The slope is dominantly less than 1 percent but ranges to up to 3 percent. The mean annual precipitation is about 1549 mm (61 in), and the mean annual air temperature is about 20 degrees C. (68 degrees F.), where the soil is found. The soil is fine, […], and […].

[1] = Thermal stability of NBTPT at urea melt temperature by HPLC; type: physicochemical
Description: The thermal stability of neat NBTPT and NBTPT contained within a core, as disclosed herein, can be determined by HPLC. For example, neat NBTPT or a core containing NBTPT can be exposed to 135° C. (133-135° C. is the typical temperature range of a urea melt) and can continuously be analyzed by HPLC every 5 min, until 30 min on analysis was reached. Such data will determine whether the NBTPT has better thermal stability when contained within a core, as compared to neat NBTPT.
Stability of inhibitors in urea melt: Extrudates containing inhibitors were tested for their stability in urea melt using HPLC and LCMS.

| SMILES | Cumulative Nitrogen Loss (mg) by 17 Days (Upland Crowley Soil; 17 days of exposure to Upland Crowley Soil) | % Urea (Upland Crowley Soil; nitrogen loss relative to urea, 17 days, Upland Crowley Soil) | % Reduction in Nitrogen Loss (Upland Crowley Soil; versus urea, 17 days, Upland Crowley Soil) | thermal stability of neat NBTPT ([1]; neat, exposed to 133-135° C. over time, FIG. 13) | thermal stability of NBTPT within a fertilizer core particle ([1]; within a core exposed to 133-135° C. over time, FIG. 14) |
| --- | --- | --- | --- | --- | --- |
| NC(N)=O [Urea, urea] | 299.08 mg | 100% | 0% |  |  |
| CCCCNP(N)(N)=S [NBTPT, N-(n-butyl) thiophosphoric triamide] |  |  |  | decomposes at this temperature over time | stable over time and does not decompose |
